In patent US20090099186A1, “INHIBITORS OF VIRAL REPLICATION” (priority 2005, published 2009):
pIC50: −log10 of the molar value.

Target: T1, full-length NS3 (1-631) protein (HCV NS3 helicase) (Hepatitis C virus genotype 1a, UniProt P27958)
T1 construct: Recombinant, purified, full-length NS3 (1-631) protein
Test: HCV Helicase TR-FRET Unwinding Assay
Assay type: biochemical
Procedure: HCV Helicase TR-FRET Unwinding Assay
Compound potency was assessed by determining the ability of the compound to inhibit DNA unwinding in an in vitro homogeneous time-resolved fluorescence quench assay. The helicase substrate (Perkin Elmer, TruPoint Helicase Substrate) consisted of partially double-stranded DNA, with one oligonucleotide strand labeled with a fluorescent europium chelate and the other strand labeled with the QSY™ 7 quencher. In the presence of helicase and ATP, this DNA is unwound and a large increase in fluorescence is observed. An excess of an unlabeled oligonucleotide (also from Perkin Elmer, TruPoint Helicase Capture Strand) that is complementary to the quencher strand was included in the assay to prevent reannealing of the europium and QSY-labeled strands.
The assay buffer consisted of 25 mM MOPS (pH 7.0), 500 μM MgCl2, and 0.005% (v/v) Triton X-100, with DMSO being present at a final concentration of 2% (v/v). Recombinant, purified, full-length NS3 (1-631) protein was included in these assays at a final concentration of 2.5 nM. Compound was incubated with NS3 protein for 5 minutes in a 384-well white Proxiplate™ (Perkin Elmer) prior to the addition of TruPoint Helicase Substrate (4 nM final concentration), TruPoint Helicase Capture Strand (15 nM final concentration), and ATP (100 μM final concentration). The final reaction volume was 20 μL. Immediately after the addition of the substrates and capture strand, the initial rates of the unwinding reactions were determined at room temperature via an Envision (Perkin Elmer) plate reader. The rates of reactions containing test compound were compared to those lacking test compound in order to evaluate compound potency. IC50 values were determined using the curve-fitting software XLfit (IDBS).

[1] = Table 4, inhibition of DNA unwinding, 2.5 nM NS3, 100 μM ATP
[2] = second TR-FRET IC50 column (c2) of Table 4, same head as the first, inhibition of DNA unwinding

T1 sequence (P27958 1027-1657 T1100M/T1173A/K1247Q/A1303G/S1327L/G1556E/R1608W): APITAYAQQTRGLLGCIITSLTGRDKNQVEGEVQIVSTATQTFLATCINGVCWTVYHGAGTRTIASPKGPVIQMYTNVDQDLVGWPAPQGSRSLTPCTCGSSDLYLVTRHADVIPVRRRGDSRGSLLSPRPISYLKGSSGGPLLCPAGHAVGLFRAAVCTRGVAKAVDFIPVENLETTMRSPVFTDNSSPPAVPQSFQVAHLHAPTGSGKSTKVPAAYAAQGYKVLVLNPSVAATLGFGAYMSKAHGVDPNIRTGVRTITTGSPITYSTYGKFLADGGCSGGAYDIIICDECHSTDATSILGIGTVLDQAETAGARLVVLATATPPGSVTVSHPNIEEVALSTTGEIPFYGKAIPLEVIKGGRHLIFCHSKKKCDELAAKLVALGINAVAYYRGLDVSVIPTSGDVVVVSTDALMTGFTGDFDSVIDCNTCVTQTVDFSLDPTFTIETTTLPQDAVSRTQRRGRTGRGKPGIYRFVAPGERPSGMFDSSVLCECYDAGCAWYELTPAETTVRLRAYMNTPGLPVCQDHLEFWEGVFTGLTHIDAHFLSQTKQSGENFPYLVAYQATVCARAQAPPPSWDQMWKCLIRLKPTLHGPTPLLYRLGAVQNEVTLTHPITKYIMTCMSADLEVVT

COC(=O)C1CCN(C(=O)/C=C/c2ccc(N(C)C)cc2Cl)CC1 [Example 14, (E)-methyl 1-(3-(2-chloro-4-(dimethylamino)phenyl)acryloyl)piperidine-4-carboxylate]
pIC50 [1]: 4.30 to 5.00
pIC50 [2]: 4.30 to 5.00

CN(C)c1ccc(/C=C/C(=O)N2CCN(C(=O)c3ccoc3)CC2)c(Cl)c1 [Example 12, (E)-3-(2-chloro-4-(dimethylamino)phenyl)-1-(4-(furan-3-carbonyl)piperazin-1-yl)prop-2-en-1-one]
pIC50 [1]: 4.30 to 5.00
pIC50 [2]: 4.30 to 5.00

CN(C)c1ccc(/C=C/C(=O)N2CCOCC2)c(Cl)c1 [Example 13, (E)-3-(2-chloro-4-(dimethylamino)phenyl)-1-morpholinoprop-2-en-1-one]
pIC50 [1]: 4.30 to 5.00
pIC50 [2]: 4.30 to 5.00

COC(=O)C1CCN(C(=O)/C=C/c2ccc(Sc3ccc(F)cc3)cc2Cl)CC1 [Example 5, (E)-methyl 1-(3-(2-chloro-4-(4-fluorophenylthio)phenyl)acryloyl)piperidine-4-carboxylate]
pIC50 [1]: 4.30 to 5.00
pIC50 [2]: 4.30 to 5.00

Cc1cc(/C=C/C(=O)N2CCCCC2)c(Cl)cc1Sc1ccc(F)cc1 [Example 16G, (E)-3-(2-chloro-4-(4-fluorophenylthio)-5-methylphenyl)-1-(piperidin-1-yl)prop-2-en-1-one]
pIC50 [1]: 4.30 to 5.00
pIC50 [2]: 4.30 to 5.00

O=C(O)C1CCN(C(=O)/C=C/c2ccc(Sc3ccc(F)cc3)cc2C(F)(F)F)CC1 [Example 31B, (E)-1-(3-(4-(4-fluorophenylthio)-2-(trifluoromethyl)phenyl)acryloyl)piperidine-4-carboxylic acid]
pIC50 [1]: 4.30 to 5.00
pIC50 [2]: 4.30 to 5.00

CCN(CC)C(=O)/C=C/c1ccc(Sc2ccc(F)cc2)cc1Cl [Example 4, (E)-3-(2-chloro-4-(4-fluorophenylthio)phenyl)-N,N-diethylacrylamide]
pIC50 [1]: 4.30 to 5.00
pIC50 [2]: 4.30 to 5.00

O=C(/C=C/c1ccccc1Cl)NCCO [Example 33]
pIC50 [1]: 4.30 to 5.00
pIC50 [2]: 4.30 to 5.00

COc1ccccc1Sc1ccc(/C=C/C(=O)N2CCC(C(=O)O)CC2)c(Cl)c1 [Example 26, (E)-1-(3-(2-chloro-4-(2-methoxyphenylthio)phenyl)acryloyl)piperidine-4-carboxylic acid]
pIC50 [1]: 4.30 to 5.00
pIC50 [2]: 4.30 to 5.00

COc1ccccc1Sc1ccc(/C=C/C(=O)NCCC(=O)O)c(Cl)c1 [Example 29, (E)-3-(3-(2-chloro-4-(2-methoxyphenylthio)phenyl)acrylamido)propanoic acid]
pIC50 [1]: 4.30 to 5.00
pIC50 [2]: 4.30 to 5.00

O=C(/C=C/c1ccc(Sc2ccc(F)cc2)cc1Cl)Nc1cccc(C(=O)O)c1 [Example 8, (E)-3-(3-(2-chloro-4-(4-fluorophenylthio)phenyl)acrylamido)benzoic acid]
pIC50 [1]: > 5.00
pIC50 [2]: > 5.00

O=C(/C=C/c1ccccc1Cl)Nc1ccccc1 [Example 35, (E)-3-(2-chlorophenyl)-N-phenylacrylamide]
pIC50 [1]: 4.30 to 5.00
pIC50 [2]: 4.30 to 5.00

Cc1cc(/C=C/C(=O)N2CCN(C(=O)c3ccoc3)CC2)c(Cl)cc1Sc1ccc(F)cc1 [Example 17, (E)-3-(2-chloro-4-(4-fluorophenylthio)-5-methylphenyl)-1-(4-(furan-3-carbonyl)piperazin-1-yl)prop-2-en-1-one]
pIC50 [1]: 4.30 to 5.00
pIC50 [2]: 4.30 to 5.00

CC(=O)N1CCN(C(=O)/C=C/c2ccc(N(C)C)cc2Cl)CC1 [Example 9B, (E)-1-(4-acetylpiperazin-1-yl)-3-(2-chloro-4-(dimethylamino)phenyl)prop-2-en-1-one]
pIC50 [1]: > 5.00
pIC50 [2]: > 5.00

O=C(/C=C/c1ccccc1Cl)N1Cc2ccccc2C1 [Example 34, (E)-3-(2-chlorophenyl)-1-(isoindolin-2-yl)prop-2-en-1-one]
pIC50 [1]: 4.30 to 5.00
pIC50 [2]: 4.30 to 5.00

O=C(/C=C/c1ccc(Sc2ccc(F)cc2)cc1Cl)N1CCOCC1 [Example 3, (E)-3-(2-chloro-4-(4-fluorophenylthio)phenyl)-1-morpholinoprop-2-en-1-one]
pIC50 [1]: 4.30 to 5.00
pIC50 [2]: 4.30 to 5.00

Cc1cc(/C=C/C(=O)NCCC(=O)O)c(Cl)cc1Sc1ccc(F)cc1 [Example 20, (E)-3-(3-(2-chloro-4-(4-fluorophenylthio)-5-methylphenyl)acrylamido)propanoic acid]
pIC50 [1]: 4.30 to 5.00
pIC50 [2]: 4.30 to 5.00

Cc1cc(/C=C/C(=O)N2CCC(C(=O)O)CC2)c(Cl)cc1Sc1ccc(F)cc1 [Example 22, (E)-1-(3-(2-chloro-4-(4-fluorophenylthio)-5-methylphenyl)acryloyl)piperidine-4-carboxylic acid]
pIC50 [1]: 4.30 to 5.00
pIC50 [2]: > 5.00

Cc1cc(/C=C/C(=O)N2CCOCC2)c(Cl)cc1Sc1ccc(F)cc1 [Example 23, (E)-3-(2-chloro-4-(4-fluorophenylthio)-5-methylphenyl)-1-morpholinoprop-2-en-1-one]
pIC50 [1]: 4.30 to 5.00
pIC50 [2]: 4.30 to 5.00

COc1ccccc1Sc1ccc(/C=C/C(=O)N2CCC(C(=O)O)CC2)c(Cl)c1Cl [Example 32D, (E)-1-(3-(2,3-dichloro-4-(2-methoxyphenylthio)phenyl)acryloyl)piperidine-4-carboxylic acid]
pIC50 [1]: 4.30 to 5.00
pIC50 [2]: 4.30 to 5.00

CCN(CC)C(=O)/C=C/c1cc(C)c(Sc2ccc(F)cc2)cc1Cl [Example 18, (E)-3-(2-chloro-4-(4-fluorophenylthio)-5-methylphenyl)-N,N-diethylacrylamide]
pIC50 [1]: 4.30 to 5.00
pIC50 [2]: 4.30 to 5.00

COc1ccccc1Sc1ccc(/C=C/C(=O)NCCC2CCN(C)C2)c(Cl)c1 (stereo not shown) [Example 25, (E)-3-(2-chloro-4-(2-methoxyphenylthio)phenyl)-N-(2-(1-methylpyrrolidin-3-yl)ethyl)acrylamide]
pIC50 [1]: 4.30 to 5.00
pIC50 [2]: 4.30 to 5.00

COC(=O)c1cccc(NC(=O)/C=C/c2ccc(Sc3ccc(F)cc3)cc2Cl)c1 [Example 7, (E)-methyl 3-(3-(2-chloro-4-(4-fluorophenylthio)phenyl)acrylamido)benzoate]
pIC50 [1]: > 5.00
pIC50 [2]: > 5.00

Cc1cc(/C=C/C(=O)Nc2cccc(C(=O)O)c2)c(Cl)cc1Sc1ccc(F)cc1 [Example 21, (E)-3-(3-(2-chloro-4-(4-fluorophenylthio)-5-methylphenyl)acrylamido)benzoic acid]
pIC50 [1]: > 5.00
pIC50 [2]: > 5.00

O=C(O)C1CCN(C(=O)/C=C/c2ccc(Sc3ccc(F)cc3)cc2Cl)CC1 [Example 6]
pIC50 [1]: 4.30 to 5.00
pIC50 [2]: 4.30 to 5.00

CCOC(=O)CCNC(=O)/C=C/c1cc(C)c(Sc2ccc(F)cc2)cc1Cl [Example 19, (E)-ethyl 3-(3-(2-chloro-4-(4-fluorophenylthio)-5-methylphenyl)acrylamido)propanoate]
pIC50 [1]: 4.30 to 5.00
pIC50 [2]: 4.30 to 5.00

CCN(CC)C(=O)/C=C/c1ccc(Sc2ccccc2OC)cc1Cl [Example 28, (E)-3-(2-chloro-4-(2-methoxyphenylthio)phenyl)-N,N-diethylacrylamide]
pIC50 [1]: 4.30 to 5.00
pIC50 [2]: 4.30 to 5.00

COc1ccccc1Sc1ccc(/C=C/C(=O)N2CCN(C(=O)c3ccoc3)CC2)c(Cl)c1 [Example 27, (E)-3-(2-chloro-4-(2-methoxyphenylthio)phenyl)-1-(4-(furan-3-carbonyl)piperazin-1-yl)prop-2-en-1-one]
pIC50 [1]: 4.30 to 5.00
pIC50 [2]: 4.30 to 5.00

O=C(/C=C/c1ccc(Sc2ccc(F)cc2)cc1Cl)N1CCCCC1 [Example 2, (E)-3-(2-chloro-4-(4-fluorophenylthio)phenyl)-1-(piperidin-1-yl)prop-2-en-1-one]
pIC50 [1]: > 5.00
pIC50 [2]: > 5.00

CN(C)c1ccc(/C=C/C(=O)N2CCC(C(=O)O)CC2)c(Cl)c1 [Example 15]
pIC50 [1]: 4.30 to 5.00
pIC50 [2]: 4.30 to 5.00

CN(C)c1ccc(/C=C/C(=O)NCCN2CCOCC2)c(Cl)c1 [Example 10]
pIC50 [1]: 4.30 to 5.00
pIC50 [2]: 4.30 to 5.00

COc1ccccc1Sc1ccc(/C=C/C(=O)N2CCC(N3CCCC3)CC2)c(Cl)c1 [Example 30, (E)-3-(2-chloro-4-(2-methoxyphenylthio)phenyl)-1-(4-(pyrrolidin-1-yl)piperidin-1-yl)prop-2-en-1-one]
pIC50 [1]: 4.30 to 5.00
pIC50 [2]: 4.30 to 5.00

COc1ccccc1Sc1ccc(/C=C/C(=O)NCCCN(C)C)c(Cl)c1 [Example 24B, (E)-3-(2-chloro-4-(2-methoxyphenylthio)phenyl)-N-(3-(dimethylamino)propyl)acrylamide]
pIC50 [1]: 4.30 to 5.00
pIC50 [2]: 4.30 to 5.00

O=C(/C=C/c1ccc(Sc2ccc(F)cc2)cc1Cl)N1CCN(C(=O)c2ccoc2)CC1 [Example 1B, (E)-3-(2-chloro-4-(4-fluorophenylthio)phenyl)-1-(4-(furan-3-carbonyl)piperazin-1-yl)prop-2-en-1-one]
pIC50 [1]: 4.30 to 5.00
pIC50 [2]: 4.30 to 5.00

CN(C)c1ccc(/C=C/C(=O)NCCCn2ccnc2)c(Cl)c1 [Example 11, (E)-N-(3-(1H-imidazol-1-yl)propyl)-3-(2-chloro-4-(dimethylamino)phenyl)acrylamide]
pIC50 [1]: 4.30 to 5.00
pIC50 [2]: 4.30 to 5.00
